Entries after “also recorded” stand apart in the source; their conditions may differ. Ends that are not written are not given here.
Columns and labels:
MRSA [1] = experiment: Kill or inhibit growth/proliferation; morphology, biofilm and growth disruption (Tables 5, 6); assay type: cell-based, Methicillin-resistant Staphylococcus aureus; set-up: key: A: Peptide aggregates; B: Less hyphal formation; Clumps; Diffuse clumps and small polyps; F: Diffuse growth; H: Thin; I: Growth inhibition; Microcolony formation; Rippled; Small polyps; Thick; W: Halo formation on top, microlonies on bottom; also: test concentration or dose not given here
MRSA [2] = experiment: MIC (broth microdilution); assay type: cell-based, Methicillin-resistant Staphylococcus aureus
Procedure: (§1) Typically, the in vitro antimicrobial activity of antimicrobial agents is tested using standard NCCLS bacterial inhibition assays, or MIC tests (see, National Committee on Clinical Laboratory Standards “Performance Standards for Antimicrobial Susceptibility Testing,” NCCLS Document M100-S5 Vol. 14, No. 16, December 1994; “Methods for dilution antimicrobial susceptibility test for bacteria that grow aerobically-Third Edition,” Approved Standard M7-A3, National Committee for Clinical Standards, Villanova, Pa.).
(§2) Briefly, ˜1×10^5 cfu/mL bacteria were diluted in TH (S. mutans), or Mueller-Hinton (MH) broth (all other organisms) and distributed to 96-well plates. Serially-diluted (2-fold) peptides were then added and the plates incubated at 37° C. for 18-24 h. […] All experiments were conducted 10 times.

microorganisms = experiment: Peptides having multiple activities (targeting/binding, antimicrobial, growth or phenotype altering)
From the text: In certain embodiments, peptides described herein can have multiple activities. Thus for example, a peptide can have both binding/targeting activity and antimicrobial activity. Such peptides can be used, e.g., in a chimeric construct, for any or all of these properties. Thus, for example, a peptide designated “B” in Table 8 can be used as a targeting peptide. If it is also designated G or M it can also be used for antimicrobial activity.

S. mutans [3] = experiment: Kill or inhibit growth/proliferation; morphology, biofilm and growth disruption (Tables 5, 6); assay type: cell-based, Streptococcus mutans; set-up: key: A: Peptide aggregates; B: Less hyphal formation; Clumps; Diffuse clumps and small polyps; F: Diffuse growth; H: Thin; I: Growth inhibition; Microcolony formation; Rippled; Small polyps; Thick; W: Halo formation on top, microlonies on bottom; also: test concentration or dose not given here
S. epidermidis [4] = assay type: cell-based, Staphylococcus epidermidis; settings: S. epidermidis
Procedure: as §1, §2

S. pneumoniae = experiment: Kill or inhibit growth/proliferation; morphology, biofilm and growth disruption (Tables 5, 6); assay type: cell-based, Streptococcus pneumoniae; set-up: key: A: Peptide aggregates; B: Less hyphal formation; Clumps; Diffuse clumps and small polyps; F: Diffuse growth; H: Thin; I: Growth inhibition; Microcolony formation; Rippled; Small polyps; Thick; W: Halo formation on top, microlonies on bottom; also: test concentration or dose not given here
S. epidermidis [5] = experiment: as above; assay type: cell-based, Staphylococcus epidermidis; set-up: key: A: Peptide aggregates; B: Less hyphal formation; Clumps; Diffuse clumps and small polyps; F: Diffuse growth; H: Thin; I: Growth inhibition; Microcolony formation; Rippled; Small polyps; Thick; W: Halo formation on top, microlonies on bottom
B. subtilis [6] = experiment: as above; assay type: cell-based, Bacillus subtilis; set-up: key: A: Peptide aggregates; B: Less hyphal formation; Clumps; Diffuse clumps and small polyps; F: Diffuse growth; H: Thin; I: Growth inhibition; Microcolony formation; Rippled; Small polyps; Thick; W: Halo formation on top, microlonies on bottom
T. rubrum = experiment: MIC (broth microdilution); assay type: cell-based, Trichophyton rubrum
Procedure: as §1, §2

[7] = system: microorganisms (e.g., bacteria, yeasts, fungi); experiment: Targeting peptide binding to target microorganisms (Table 3); settings: preferably 1x PBS; for Target(s): microorganism(s) the targeting peptide binds; for Target(s) (microorganisms bound by the targeting peptide): peptide binding in aqueous buffers varied by peptide solubility
B. subtilis [8] = experiment: MIC (broth microdilution); assay type: cell-based, Bacillus subtilis
Procedure: as §1, §2

F. nucleatum = experiment: Kill or inhibit growth/proliferation; morphology, biofilm and growth disruption (Tables 5, 6); assay type: cell-based, Fusobacterium nucleatum; set-up: key: A: Peptide aggregates; B: Less hyphal formation; Clumps; Diffuse clumps and small polyps; F: Diffuse growth; H: Thin; I: Growth inhibition; Microcolony formation; Rippled; Small polyps; Thick; W: Halo formation on top, microlonies on bottom; also: test concentration or dose not given here
P. gingivalis = experiment: as above; assay type: cell-based, Porphyromonas gingivalis; set-up: key: A: Peptide aggregates; B: Less hyphal formation; Clumps; Diffuse clumps and small polyps; F: Diffuse growth; H: Thin; I: Growth inhibition; Microcolony formation; Rippled; Small polyps; Thick; W: Halo formation on top, microlonies on bottom
C. albicans = experiment: as above; assay type: cell-based, Candida albicans; set-up: key: A: Peptide aggregates; B: Less hyphal formation; Clumps; Diffuse clumps and small polyps; F: Diffuse growth; H: Thin; I: Growth inhibition; Microcolony formation; Rippled; Small polyps; Thick; W: Halo formation on top, microlonies on bottom
E. faecalis = experiment: as above; assay type: cell-based, Enterococcus faecalis; set-up: key: A: Peptide aggregates; B: Less hyphal formation; Clumps; Diffuse clumps and small polyps; F: Diffuse growth; H: Thin; I: Growth inhibition; Microcolony formation; Rippled; Small polyps; Thick; W: Halo formation on top, microlonies on bottom; also: test concentration or dose not given here
A. niger = experiment: MIC (broth microdilution); assay type: cell-based, Aspergillus niger
Procedure: as §1, §2

C. jeikeium = experiment: Kill or inhibit growth/proliferation; morphology, biofilm and growth disruption (Tables 5, 6); assay type: cell-based, Corynebacterium jeikeium; set-up: key: A: Peptide aggregates; B: Less hyphal formation; Clumps; Diffuse clumps and small polyps; F: Diffuse growth; H: Thin; I: Growth inhibition; Microcolony formation; Rippled; Small polyps; Thick; W: Halo formation on top, microlonies on bottom; also: test concentration or dose not given here
P. aeruginosa = experiment: as above; assay type: cell-based, Pseudomonas aeruginosa; set-up: key: A: Peptide aggregates; B: Less hyphal formation; Clumps; Diffuse clumps and small polyps; F: Diffuse growth; H: Thin; I: Growth inhibition; Microcolony formation; Rippled; Small polyps; Thick; W: Halo formation on top, microlonies on bottom
S. mutans [9] = assay type: cell-based, Streptococcus mutans; settings: S. mutans
Procedure: as §1, §2

[10] = binding in aqueous buffers depending on peptide solubility
[11] = peptide binding conducted in aqueous buffers varied by peptide solubility
For Organism, effect (morphology, biofilm and growth disruption) in this document: test concentration or dose not given here.
For Organism, effect in this document: test concentration or dose not given here.

Substance | Activities (microorganisms) | Organism, effect (morphology, biofilm and growth disruption) (S. mutans [3]) | Target(s) (microorganisms bound by the targeting peptide) [7] | Organism, effect (morphology, biofilm and growth disruption) (F. nucleatum) | Organism, effect (morphology, biofilm and growth disruption) (P. gingivalis) | other results
KFQGEFTNIGQSYIVSASHMSTSLNTGK [PF-583] | G B M | – | – | – | – | Organism, effect (MRSA [1]): MRSA (I); MIC (MRSA [2]): MRSA , 50 μM; Organism, effect (S. mutans [3]): S. mutans (F); MIC (S. epidermidis [4]): S. epidermidis, 50 μM; Organism, effect (S. pneumoniae): S. pneumoniae (D); Organism, effect (S. epidermidis [5]): S. epidermidis (I)
MIRIRSPTKKKLNRNSISDWKSNTSGRFFY [PF-283] | G B M | – | – | – | – | Organism, effect (B. subtilis [6]): B. subtilis (H); MIC (T. rubrum): T. rubrum, 50 μM; MIC (S. epidermidis [4]): S. epidermidis, 50 μM; Target(s) [7, 10]: B. subtilis; also recorded: B. fragilis; also recorded: C. difficile; MIC (B. subtilis [8]): B. subtilis, 50 μM; Organism, effect (S. epidermidis [5]): S. epidermidis (H)
NTNDLLQAFELMGLGMAGVFIVLGILYIVAELLIKIFPVNN [PF-C194] | G B | S. mutans (F) | A. naeslundii; also recorded: F. nucleatum; also recorded: P. gingivalis; also recorded: S. mutans; also recorded: T. denticola | F. nucleatum (T) | P. gingivalis (T) | –
PF-C052: peptide having multiple activities (SRFRNGV; Peptide with targeting and/or antimicrobial activity) | G B | – | A. naeslundii; also recorded: F. nucleatum; also recorded: S. mutans | – | P. gingivalis (H) | –
PF-C075: peptide having multiple activities (KALVISVFAIVFSIIFVKFFYWRDKK; Peptide with targeting and/or antimicrobial activity) | G B | S. mutans (F) | A. naeslundii; also recorded: F. nucleatum; also recorded: P. gingivalis; also recorded: S. mutans; also recorded: T. denticola | F. nucleatum (T) | P. gingivalis (R) | –
PF-C084: peptide having multiple activities (FFSVIFLFGLNYLICNSPLFNILR; Peptide with targeting and/or antimicrobial activity) | G B | S. mutans (F) | A. naeslundii; also recorded: F. nucleatum; also recorded: P. gingivalis; also recorded: S. mutans | F. nucleatum (T) | P. gingivalis (R) | –
PF-C088: peptide having multiple activities (DIANNILNSVSERLIIA; Peptide with targeting and/or antimicrobial activity) | G B | S. mutans (I) | A. naeslundii; also recorded: F. nucleatum; also recorded: P. gingivalis; also recorded: S. mutans; also recorded: T. denticola | F. nucleatum (H) | P. gingivalis (R) | –
PF-C089 (MPKRHYYKLEAKALQFGLPFAYSPIQLLK; Peptide with targeting and/or antimicrobial activity) | – | – | – | – | P. gingivalis (R) | –
PF-C136: peptide having multiple activities (LILSYQASVYPLFAYLCQQKDY; Peptide with targeting and/or antimicrobial activity) | G B | – | A. naeslundii; also recorded: F. nucleatum; also recorded: P. gingivalis; also recorded: S. mutans; also recorded: T. denticola | F. nucleatum (C) | P. gingivalis (R) | –
PF-C180: peptide having multiple activities (TVEELDKAFTWGAAAALAIGVIAINVGLAAGYCYNNNDVF; Peptide with targeting and/or antimicrobial activity) | G B | S. mutans (S) | F. nucleatum; also recorded: P. gingivalis; also recorded: S. mutans; also recorded: T. denticola | – | P. gingivalis (R) | –
PF-C293 (IIIILPKIYLVCKTV; Peptide with targeting and/or antimicrobial activity) | – | S. mutans (F) | – | F. nucleatum (T) | P. gingivalis (R) | –
RESKLIAMADMIRRRI-NH2 [PF-545] | G B M | – | – | – | – | Organism, effect (B. subtilis [6]): B. subtilis (I); MIC (MRSA [2]): MRSA , 50 μM; Organism, effect (C. albicans): C. albicans (B); Organism, effect (E. faecalis): E. faecalis (H); Target(s) [7, 11]: S. epidermidis; also recorded: E. coli; also recorded: P. aeruginosa; also recorded: S. pneumoniae; also recorded: E. faecalis; also recorded: C. jeikeium; MIC (A. niger): A. niger, 50 μM; Organism, effect (C. jeikeium): C. jeikeium (H); MIC (B. subtilis [8]): B. subtilis, 25 μM
VLPFPAIPLSRRRACVAAPRPRSRQRAS [PF-168] | G B M | – | – | – | – | Organism, effect (MRSA [1]): MRSA (I); MIC (MRSA [2]): MRSA , 50 μM; MIC (T. rubrum): T. rubrum, 50 μM; Target(s) [7, 10]: S. epidermidis and M. luteus and E. coli and C. albicans and MRSA and C. jeikeium and C. jejuni; MIC (A. niger): A. niger, 50 μM; Organism, effect (P. aeruginosa): P. aeruginosa (H)
WSRVPGHSDTGWKVWHRW-NH2 [PF-547] | G B M | – | – | – | – | Organism, effect (MRSA [1]): MRSA (M); Organism, effect (B. subtilis [6]): B. subtilis (I); MIC (T. rubrum): T. rubrum, 25 μM; Organism, effect (E. faecalis): E. faecalis (R); Target(s) [7, 11]: S. epidermidis and E. coli and P. aeruginosa and C. albicans and MRSA and S. pneumoniae and E. faecalis; MIC (B. subtilis [8]): B. subtilis, 25 μM; MIC (S. mutans [9]): S. mutans, 12.5 μM; Organism, effect (S. epidermidis [5]): S. epidermidis (R)
